Measurements from patent US12152020B2, “Pesticidally active azole-amide compounds” (SYNGENTA PARTICIPATIONS AG, priority 2018, dated 2024).

What was measured:
Format in all cases: in vivo
[1] = tested on: Myzus persicae (Green Peach Aphid); assay: Example B7: Myzus persicae systemic activity, pea seedling roots in test solution; conditions: 144 h, test rate of 24 ppm, 6 days after placing seedlings into test solutions
Protocol: Example B7: Myzus persicae (Green Peach Aphid): Systemic Activity
Roots of pea seedlings infested with an aphid population of mixed ages were placed directly into aqueous test solutions prepared from 10′000 DMSO stock solutions. The samples were assessed for mortality 6 days after placing seedlings into test solutions.

[2] = tested on: Myzus persicae (Green Peach Aphid); assay: Example B6: Myzus persicae feeding/contact activity, sunflower leaf discs; conditions: foliar, 144 h, application rate of 200 ppm, aphid population of mixed ages, 6 days after infestation
Protocol: Example B6: Myzus persicae (Green Peach Aphid): Feeding/Contact Activity
Sunflower leaf discs were placed onto agar in a 24-well microtiter plate and sprayed with aqueous test solutions prepared from 10′000 ppm DMSO stock solutions. After drying, the leaf discs were infested with an aphid population of mixed ages. The samples were assessed for mortality 6 days after infestation.

[3] = tested on: Plutella xylostella (Diamond Back Moth); assay: Example B5: Plutella xylostella, artificial diet in 24-well plates, eggs; conditions: 192 h, application rate of 200 ppm, 8 days after infestation, in comparison to untreated samples, read-out: effect in at least one of the two categories (mortality or growth inhibition)
Protocol: Example B5: Plutella xylostella (Diamond Back Moth)
24-well microtiter plates with artificial diet were treated with aqueous test solutions prepared from 10′000 ppm DMSO stock solutions by pipetting. After drying, Plutella eggs were pipetted through a plastic stencil onto a gel blotting paper and the plate was closed with it. The samples were assessed for mortality and growth inhibition in comparison to untreated samples 8 days after infestation.
The following compounds gave an effect of at least 80% in at least one of the two categories (mortality or growth inhibition) at an application rate of 200 ppm: • P1, P2, P3, P4, P5, P7, P8, P9, P14, P15, P16, P17, P18, P21, P22, P23, P24, P25, P27, P28, P29, P30, P31, P32, P33, P34, P35, P36

[4] = tested on: Myzus persicae (Green Peach Aphid); assay: Example B8: Myzus persicae intrinsic activity, sucrose solution under Parafilm, 24-well; conditions: 120 h, test rate of 12 ppm, 5 days after infestation
Description: Example B8: Myzus persicae (Green Peach Aphid): Intrinsic Activity
Test compounds prepared from 10′000 ppm DMSO stock solutions were applied by pipette into 24-well microtiter plates and mixed with sucrose solution. The plates were closed with a stretched Parafilm. A plastic stencil with 24 holes was placed onto the plate and infested pea seedlings were placed directly on the Parafilm. The infested plate was closed with a gel blotting paper and another plastic stencil and then turned upside down. The samples were assessed for mortality 5 days after infestation.

[5] = tested on: Myzus persicae (Green Peach Aphid); assay: Example B13: Myzus persicae, sucrose solution under Parafilm, 96-well; conditions: 120 h, application rate of 50 ppm, 5 days after infestation
Description: Example B13: Myzus persicae (Green Peach Aphid)
Test compounds prepared from 10′000 ppm DMSO stock solutions were applied by a liquid handling robot into 96-well microtiter plates and mixed with a sucrose solution. Parafilm was stretched over the 96-well microtiter plate and a plastic stencil with 96 holes was placed onto the plate. Aphids were sieved into the wells directly onto the Parafilm. The infested plates were closed with a gel blotting card and a second plastic stencil and then turned upside down. The samples were assessed for mortality 5 days after infestation.

[6] = tested on: Spodoptera littoralis (Egyptian Cotton Leaf Worm); assay: Example B9: Spodoptera littoralis, cotton leaf discs sprayed, L1 larvae; conditions: foliar, 72 h, application rate of 200 ppm, five L1 larvae, 3 days after infestation, in comparison to untreated samples, read-out: control in at least one of the categories (mortality, anti-feedant effect, or growth inhibition)
Protocol: Example B9: Spodoptera littoralis (Egyptian Cotton Leaf Worm)
Cotton leaf discs were placed onto agar in 24-well microtiter plates and sprayed with aqueous test solutions prepared from 10′000 ppm DMSO stock solutions. After drying the leaf discs were infested with five L1 larvae. The samples were assessed for mortality, anti-feeding effect, and growth inhibition in comparison to untreated samples 3 days after infestation. Control of Spodoptera littoralis by a test sample is given when at least one of the categories mortality, anti-feedant effect, and growth inhibition is higher than the untreated sample.

[7] = tested on: Diabrotica balteata (Corn Root Worm); assay: Example B1: Diabrotica balteata, maize sprouts sprayed, L2 larvae; conditions: 96 h, application rate of 200 ppm, 4 days after infestation, in comparison to untreated samples, read-out: effect in at least one of the two categories (mortality or growth inhibition)
Protocol: Example B1: Diabrotica balteata (Corn Root Worm)
Maize sprouts placed onto an agar layer in 24-well microtiter plates were treated with aqueous test solutions prepared from 10′000 ppm DMSO stock solutions by spraying. After drying, the plates were infested with L2 larvae (6 to 10 per well). The samples were assessed for mortality and growth inhibition in comparison to untreated samples 4 days after infestation.
The following compounds gave an effect of at least 80% in at least one of the two categories (mortality or growth inhibition) at an application rate of 200 ppm: • P2, P3, P4, P5, P6, P7, P8, P14, P15, P16, P17, P18, P19, P20, P21, P22, P23, P24, P25, P27, P28, P29, P30, P31, P32, P33, P34, P35

[8] = tested on: Chilo suppressalis (Striped Rice Stemborer); assay: Example B4: Chilo suppressalis, artificial diet, L2 larvae; conditions: 144 h, application rate of 200 ppm, 6 days after infestation, in comparison to untreated samples, read-out: control in at least one of the categories (mortality, anti-feedant effect, or growth inhibition)
Protocol: Example B4: Chilo suppressalis (Striped Rice Stemborer)
24-well microtiter plates with artificial diet were treated with aqueous test solutions prepared from 10′000 ppm DMSO stock solutions by pipetting. After drying, the plates were infested with L2 larvae (6-8 per well). The samples were assessed for mortality, anti-feeding effect, and growth inhibition in comparison to untreated samples 6 days after infestation. Control of Chilo suppressalis by a test sample is given when at least one of the categories mortality, anti-feedant effect, and growth inhibition is higher than the untreated sample.

[9] = tested on: Plutella xylostella (Diamondback Moth); assay: Example B14: Plutella xylostella, artificial diet in 96-well plates, eggs; conditions: 216 h, application rate of 500 ppm, 9 days after infestation
Protocol: Example B14: Plutella xylostella (Diamondback Moth)
96-well microtiter plates containing artificial diet were treated with aqueous test solutions, prepared from 10′000 ppm DMSO stock solutions, by a liquid handling robot. After drying, eggs (˜30 per well) were infested onto a netted lid which was suspended above the diet. The eggs hatch and L1 larvae move down to the diet. The samples were assessed for mortality 9 days after infestation.
The following compounds gave an effect of at least 80% average mortality at an application rate of 500 ppm: • P2, P3, P5, P6, P7, P9, P15, P16, P17, P18, P20, P22, P24, P25, P30, P31, P32, P33, P38.

[10] = tested on: Euschistus heros (Neotropical Brown Stink Bug); assay: Example B2: Euschistus heros, soybean leaves sprayed, N2 nymphs; conditions: 120 h, application rate of 200 ppm, 5 days after infestation, in comparison to untreated samples, read-out: effect in at least one of the two categories (mortality or growth inhibition)
Protocol: Example B2: Euschistus heros (Neotropical Brown Stink Bug)
Soybean leaves on agar in 24-well microtiter plates were sprayed with aqueous test solutions prepared from 10′000 ppm DMSO stock solutions. After drying the leaves were infested with N2 nymphs. The samples were assessed for mortality and growth inhibition in comparison to untreated samples 5 days after infestation.
The following compounds gave an effect of at least 80% in at least one of the two categories (mortality or growth inhibition) at an application rate of 200 ppm: • P1, P2, P3, P7, P11, P12, P16, P17, P18, P22, P25, P29, P32, P33, P37, P38

[11] = tested on: Frankliniella occidentalis (Western Flower Thrips); assay: Example B3: Frankliniella occidentalis feeding/contact activity, sunflower leaf discs; conditions: foliar, 168 h, application rate of 200 ppm, population of mixed ages, 7 days after infestation
Protocol: Example B3: Frankliniella occidentalis (Western Flower Thrips):Feeding/Contact Activity
Sunflower leaf discs were placed on agar in 24-well microtiter plates and sprayed with aqueous test solutions prepared from […] stock solutions. After drying the leaf discs were infested with a Frankliniella population of mixed ages. The samples were assessed for mortality 7 days after infestation.

[12] = tested on: Thrips tabaci (Onion thrips); assay: Example B12: Thrips tabaci feeding/contact activity, sunflower leaf discs; conditions: foliar, 144 h, application rate of 200 ppm, thrips population of mixed ages, 6 days after infestation
Protocol: Example B12: Thrips tabaci (Onion thrips): Feeding/Contact Activity
Sunflower leaf discs were placed on agar in 24-well microtiter plates and sprayed with aqueous test solutions prepared from 10′000 ppm DMSO stock solutions. After drying the leaf discs were infested with a thrips population of mixed ages. The samples were assessed for mortality 6 days after infestation.

CC(NC(=O)c1cc(C(F)(F)F)cc(C(F)(F)F)c1)c1nc(S(C)(=O)=O)nn1-c1ncccn1 (stereo not shown) [Compound P21, N-[1-(5-methylsulfonyl-2-pyrimidin-2-yl-1,2,4-triazol-3-yl)ethyl]-3,5-bis(trifluoromethyl) benzamide]
≥ 80%: mortality at 24 ppm [1] | mortality at 200 ppm [2] | percent effect (mortality or growth inhibition) at 200 ppm [3] | mortality at 12 ppm [4] | mortality at 50 ppm [5] | percent control (mortality, anti-feedant effect or growth inhibition) at 200 ppm [6] | percent effect (mortality or growth inhibition) at 200 ppm [7] | percent control (mortality, anti-feedant effect or growth inhibition) at 200 ppm [8]

COCc1nc(C(C)NC(=O)c2cc(C(F)(F)F)cc(C(F)(F)F)c2)n(-c2ncccn2)n1 (stereo not shown) [Compound P2, N-[1-[5-(methoxymethyl)-2-pyrimidin-2-yl-1,2,4-triazol-3-yl]ethyl]-3,5-bis(trifluoromethyl)benzamide]
≥ 80%: mortality at 24 ppm [1] | percent effect (mortality or growth inhibition) at 200 ppm [3] | mortality at 12 ppm [4] | mortality at 50 ppm [5] | percent control (mortality, anti-feedant effect or growth inhibition) at 200 ppm [6] | percent effect (mortality or growth inhibition) at 200 ppm [7] | mortality at 500 ppm [9] | percent effect (mortality or growth inhibition) at 200 ppm [10]

CNC(=O)c1nc(C(C)N(C)C(=O)c2cc(C(F)(F)F)cc(C(F)(F)F)c2)n(-c2ncccn2)n1 (stereo not shown) [Compound P12, 5-[1-[[3.5-bis(trifluoromethyl)benzoyl]-methyl-amino]ethyl]-N-methyl-1-pyrimidin-2-yl-1,2,4-triazole-3-carboxamide]
≥ 80%: mortality at 24 ppm [1] | mortality at 200 ppm [2] | mortality at 200 ppm [11] | mortality at 12 ppm [4] | mortality at 50 ppm [5] | percent control (mortality, anti-feedant effect or growth inhibition) at 200 ppm [8] | percent effect (mortality or growth inhibition) at 200 ppm [10]

CC(c1nc(N(C)C)nn1-c1ncccn1)N(C)C(=O)c1cc(C(F)(F)F)cc(C(F)(F)F)c1 (stereo not shown) [Compound P16, N-[1-[5-(dimethylamino)-2-pyrimidin-2-yl-1,2,4-triazol-3-yl]ethyl]-N-methyl-3,5-bis(trifluoromethyl) benzamide]
≥ 80%: mortality at 24 ppm [1] | mortality at 200 ppm [2] | mortality at 200 ppm [11] | percent effect (mortality or growth inhibition) at 200 ppm [3] | mortality at 12 ppm [4] | mortality at 50 ppm [5] | percent control (mortality, anti-feedant effect or growth inhibition) at 200 ppm [6] | percent effect (mortality or growth inhibition) at 200 ppm [7] | mortality at 500 ppm [9] | percent effect (mortality or growth inhibition) at 200 ppm [10]

CC(c1nc(I)nn1-c1ncccn1)N(CC1CC1)C(=O)c1cc(C(F)(F)F)cc(C(F)(F)F)c1 (stereo not shown) [Compound P5, N-(cyclopropylmethyl)-N-[1-(5-iodo-2-pyrimidin-2-yl-1,2,4-triazol-3-yl)ethyl]-3,5-bis(trifluoromethyl) benzamide]
≥ 80%: mortality at 200 ppm [12] | percent effect (mortality or growth inhibition) at 200 ppm [3] | mortality at 50 ppm [5] | percent control (mortality, anti-feedant effect or growth inhibition) at 200 ppm [6] | percent effect (mortality or growth inhibition) at 200 ppm [7] | mortality at 500 ppm [9]

CC(NC(=O)c1cc(C(F)(F)F)cc(C(F)(F)F)c1)c1nc(Br)nn1-c1ncccn1 (stereo not shown) [Compound P4, N-[1-(5-bromo-2-pyrimidin-2-yl-1,2,4-triazol-3-yl)ethyl]-3,5-bis(trifluoromethyl) benzamide]
≥ 80%: mortality at 200 ppm [2] | mortality at 200 ppm [11] | percent effect (mortality or growth inhibition) at 200 ppm [3] | mortality at 12 ppm [4] | percent control (mortality, anti-feedant effect or growth inhibition) at 200 ppm [6] | percent effect (mortality or growth inhibition) at 200 ppm [7] | percent control (mortality, anti-feedant effect or growth inhibition) at 200 ppm [8]
